Results on four compounds are retold here after the NIST ThermoML archive (doi:10.1016/j.jct.2014.02.003).

The structures appear in SMILES notation. ± gives the expanded uncertainty stated by the source.

The nature of this data set: molar enthalpy of vaporization or sublimation. Conditions: Crystal, Knudsen effusion method coupled with mass spectrometer, from logarithm of peak intensity.

As for `N[C@@H](Cc1ccc(O)cc1)C(=O)O` [3-(p-hydroxyphenyl)-L-alanine], the molar enthalpy (471.15 K) turned out to be 47.8 ± 0.43 kcal/mol.
For `O=C(O)c1ccccc1` [benzoic acid], the molar enthalpy (308.21 K) was 21.7 ± 0.454 kcal/mol.
In the case of `N[C@@H](Cc1c[nH]c2ccccc12)C(=O)O` [L-tryptophan], under “450.15 K”, the molar enthalpy stood at 44.1 ± 0.55 kcal/mol.
With `N[C@@H](Cc1ccccc1)C(=O)O` [L-phenylalanine], the molar enthalpy (418.15 K) was found to be 37.8 ± 0.478 kcal/mol.
